Columns and labels:
[1] = test system: procaspase-3, cleaved caspase-3, procaspase-8, cleaved caspase-8, PARP; test: Apoptosis-related molecular markers by Western Blot; assay type: cell-based, human; details: A549 and SW620 cells, 24 hr or 48 hr; interferons 10 mcg/ml
Source text: Thereafter, apoptosis-related molecular markers were monitored by Western Blot. The primary antibodies used were mouse monoclonal anti-beta-tubulin (1:2000, Cat #: CW0098A) and mouse monoclonal anti-GAPDH (1:2000, Cat #: CW0100A) (Kangwei Biotechnology, China); mouse monoclonal anti-PARP (1:1000, Cat #: sc-2007, Santa Cruz Biotechnology, Inc.); rabbit monoclonal anti-procaspase 3 (1:1000, Cat #: 9665), and rabbit polyclonal anti-cleaved caspase 3 (1:1000, Cat #: 9661) (Cell Signaling Technology, USA); goat polyclonal anti-procaspase 8 (1:1000, Cat #: sc-6136, Santa Cruz Biotechnology, Inc); rabbit monoclonal anti-cleaved caspase 8 (1:1000, Cat #: 9496) (Cell Signaling Technology, USA).

[2] = test system: Human Cervical Cancer Hela Xenografts; test: rSIFN-co on human cervical cancer Hela xenografts in nude mice; assay type: in vivo; details: 5 mg/kg i.v. days 1 and 13
Method: Then 1.5 mm^3 fragments were prepared for s.c. implantation into the animals.

[3] = test system: human hepatoma SMMC-7721 xenografts; test: rSIFN-co on human hepatoma SMMC-7721 xenografts in nude mice; details: 5 mg/kg i.v.
Method: The test article was used without dilution. It was stored at 4° C. until thawed for injection.
The animals used were 4-6 weeks old male BALB/cA nu/nu mice, weighing about 23±2 g, obtained from the Shanghai Institute of Materia Medica (Shanghai, P.R. China). […] Animals were housed 6 to a cage. They were ear-marked with ear hole punch identification. The room temperature was maintained at 25° C.±+1° C. Lighting was set at 12 hr on and 12 hr off. Food was provided ad libitum. City tap water, filtered with a 5 micrometer (μm) filter, was provided to the animals ad libitum via water bottles.
The test article was administered in a volume of 0.05 ml-0.15 ml per mouse per treatment, depending on the group to which the animal was assigned. […] Normal saline was injected in a volume of 0.15 ml per mouse, which was used as vehicle control.
Animals were assigned to treatment groups randomly. Initially, all animals were placed in one large animal cage. For assignment to the study, they were later separately housed, with 6 animals per cage per treatment group. Groups 1 and 2 are Control groups in which the animals were each administered the vehicle every other day after the first treatment. […] Tumor growth was monitored by measuring the length and width of each tumor twice a week during the course of the study. Each animal was also weighed twice a week during the course of the study.
Before commencement of this study, the xenografts were passaged twice in nude mice. Under sterile conditions, well-grown tumors were cut into 1.5 mm^3 fragments and one such fragment was injected by trocar needle into the right flank of each study animal. […] Individual tumor size (length and width) was measured twice per week with microcalipers. Tumor volume (V) was calculated using the formula: V=(length×width^2)/2. Individual relative tumor volume (RTV) was calculated using the formula: RTV=Vt/V0, where Vt is the tumor volume on the day of measurement and V0 is the tumor volume on the day of first treatment. Therapeutic effect of the test article or control article was expressed in terms of T/C (%), using the formula: T/C (%)=(mean RTV of the treated group/mean RTV of the control group)×100%; and in terms of % Inhibition, using the formula: % Inhibition=100%−T/C %.

[4] = test system: human lung cancer SPC-A4 xenografts; details: 5 mg/kg i.v. days 1 and 6
Method: Under sterile conditions, well-grown tumors were cut into 1.5 mm^3 fragments and one such fragment was injected by trocar needle into the right flank of each study animal. […] Individual tumor size (length and width) was measured twice per week with microcalipers. Tumor volume (V) was calculated using the formula: V=(length×width^2)/2. Individual relative tumor volume (RTV) was calculated using the formula: RTV=Vt/V0, where Vt is the tumor volume on the day of measurement and V0 is the tumor volume on the day of first treatment. Therapeutic effect of the test article or control article was expressed in terms of T/C (%), using the formula: T/C (%)=(mean RTV of the treated group/mean RTV of the control group)×100%; and in terms of % Inhibition, using the formula: % Inhibition=100%−T/C %.
The 1.5 mm^3 fragments were then used for s.c. implantation into the test animals. The body weight of the animals averaged 22±2 g at dose initiation.

[5] = test system: Human Colon Cancer HT-29 Xenografts; test: rSIFN-co on human colon cancer HT-29 xenografts in nude mice; assay type: in vivo; details: 5 mg/kg i.v. days 1 and 10

Structure (SMILES)	level of cleaved caspase-3 and cleaved caspase-8 [1]	level of procaspase-3, procaspase-8 and PARP [1]	TV(mm^3, mean ± SD) (D 0) ([2]; day 0)	% Inhibition ([2]; day 28)	T/C (%) ([2]; day 28)	TV(mm^3, mean ± SD) (D 28) ([2]; day 28)	TV(mm^3, mean ± SD) (D 0) ([3]; day 0)	mean body weight ([3]; day 0)	% Inhibition ([3]; day 21)	TV(mm^3, mean ± SD) (D 21) ([3]; day 21)	mean body weight ([3]; day 21)	TV(mm^3, mean ± SD) (D 0) ([4]; day 0)	% Inhibition ([4]; day 21)	RTV (mean ± SD) ([4]; day 21)	T/C (%) ([4]; day 21)	TV(mm^3, mean ± SD) (D 21) ([4]; day 21)	TV(mm^3, mean ± SD) (D 0) ([5]; day 0)	% Inhibition ([5]; day 28)	T/C (%) ([5]; day 28)	TV(mm^3, mean ± SD) (D 28) ([5]; day 28)
O=c1[nH]cc(F)c(=O)[nH]1 [5FU, reference compound]	enhanced level	significant reduction	–	–	–	–	–	–	–	–	–	–	–	–	–	–	–	–	–	–
CO[C@@]12[C@H](COC(N)=O)C3=C(C(=O)C(C)=C(N)C3=O)N1C[C@@H]1N[C@@H]12 [MMC, Mitomycin C, reference compound]	–	–	130 ± 28 mm^3	60.08%	39.92%	676 ± 358 mm^3	125 ± 35 mm^3	23.9 gram	47.18%	621 ± 247 mm^3	25.4 gram	166 ± 42 mm^3	72.87%	11.54 ± 4.37	27.13%	1831 ± 540 mm^3	132 ± 22 mm^3	62.9%	37.10%	395 ± 95 mm^3

Source: US10877024B2, “Methods of determining interferon having direct inhibitory effects on tumors and uses thereof” (SUPERLAB FAR EAST LIMITED, priority 2015, dated 2020)
